Source: patent publication US9493426B2, “Quinazolinone derivatives useful as FGFR kinase modulators” (priority 2013, dated 2016)

What was measured:
[1] = molecular target: T1, FGFR3 (Homo sapiens, UniProt P22607); assay: Enzyme binding assay (KINOMEscan) FGFR3; settings: pKd = -log Kd (M), read-out: FGFR3_pKd (converted)
T1 construct: purchased DiscoveRx Corporation
Experimental: (§1) Enzyme Binding Assays (KINOMEscan®)
(§2) Kinase enzyme binding affinities of compounds disclosed herein were determined using the KINOMEscan® technology performed by DiscoveRx Corporation, San Diego, Calif., USA (www.kinomescan.com).

[2] = molecular target: T2, FGFR2 (Homo sapiens, UniProt P21802); assay: Enzyme binding assay (KINOMEscan) FGFR2; settings: pKd = -log Kd (M), read-out: FGFR2_pKd (converted)
T2 construct: purchased DiscoveRx Corporation
Experimental: as §1, §2

[3] = molecular target: T3, FGFR1 (Homo sapiens, UniProt P11362); assay: Enzyme binding assay (KINOMEscan) FGFR1; settings: FGFR1_pKd, pKd = -log Kd (M)
T3 construct: purchased DiscoveRx Corporation
Experimental: as §1, §2

[4] = molecular target: T4, VEGFR2 (Homo sapiens, UniProt P35968); assay: Enzyme binding assay (KINOMEscan) VEGFR2; settings: pKd = -log Kd (M), read-out: VEGFR2_pKd (converted)
T4 construct: purchased DiscoveRx Corporation
Experimental: as §1, §2

[5] = molecular target: T5, FGFR4 (Homo sapiens, UniProt P22455); assay: Enzyme binding assay (KINOMEscan) FGFR4; settings: pKd = -log Kd (M); for Kd: read-out: FGFR4_pKd (converted)
T5 construct: purchased DiscoveRx Corporation
Experimental: as §1, §2

T1 sequence (P22607 23-806): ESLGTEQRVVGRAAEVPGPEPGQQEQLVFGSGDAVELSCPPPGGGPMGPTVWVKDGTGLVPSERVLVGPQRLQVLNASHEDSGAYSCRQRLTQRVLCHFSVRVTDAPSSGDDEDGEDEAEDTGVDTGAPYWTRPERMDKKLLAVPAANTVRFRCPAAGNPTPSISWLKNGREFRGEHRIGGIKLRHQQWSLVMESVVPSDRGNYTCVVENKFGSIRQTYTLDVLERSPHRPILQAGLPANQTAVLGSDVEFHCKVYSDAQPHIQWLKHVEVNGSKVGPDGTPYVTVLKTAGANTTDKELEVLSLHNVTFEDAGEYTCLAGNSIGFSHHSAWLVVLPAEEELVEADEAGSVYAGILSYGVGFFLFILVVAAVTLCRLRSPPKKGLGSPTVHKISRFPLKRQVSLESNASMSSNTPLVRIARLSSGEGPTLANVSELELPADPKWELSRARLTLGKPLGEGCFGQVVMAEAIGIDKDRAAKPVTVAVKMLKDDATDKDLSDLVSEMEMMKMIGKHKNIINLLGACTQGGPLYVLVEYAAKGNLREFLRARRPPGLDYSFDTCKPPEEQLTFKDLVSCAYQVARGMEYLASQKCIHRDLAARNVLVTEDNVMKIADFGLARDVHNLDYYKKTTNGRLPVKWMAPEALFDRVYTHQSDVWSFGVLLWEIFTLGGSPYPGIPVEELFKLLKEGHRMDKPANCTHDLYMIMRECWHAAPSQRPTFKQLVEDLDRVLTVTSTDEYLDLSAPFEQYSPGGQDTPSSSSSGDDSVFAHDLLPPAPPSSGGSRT
T3 sequence (P11362 22-822): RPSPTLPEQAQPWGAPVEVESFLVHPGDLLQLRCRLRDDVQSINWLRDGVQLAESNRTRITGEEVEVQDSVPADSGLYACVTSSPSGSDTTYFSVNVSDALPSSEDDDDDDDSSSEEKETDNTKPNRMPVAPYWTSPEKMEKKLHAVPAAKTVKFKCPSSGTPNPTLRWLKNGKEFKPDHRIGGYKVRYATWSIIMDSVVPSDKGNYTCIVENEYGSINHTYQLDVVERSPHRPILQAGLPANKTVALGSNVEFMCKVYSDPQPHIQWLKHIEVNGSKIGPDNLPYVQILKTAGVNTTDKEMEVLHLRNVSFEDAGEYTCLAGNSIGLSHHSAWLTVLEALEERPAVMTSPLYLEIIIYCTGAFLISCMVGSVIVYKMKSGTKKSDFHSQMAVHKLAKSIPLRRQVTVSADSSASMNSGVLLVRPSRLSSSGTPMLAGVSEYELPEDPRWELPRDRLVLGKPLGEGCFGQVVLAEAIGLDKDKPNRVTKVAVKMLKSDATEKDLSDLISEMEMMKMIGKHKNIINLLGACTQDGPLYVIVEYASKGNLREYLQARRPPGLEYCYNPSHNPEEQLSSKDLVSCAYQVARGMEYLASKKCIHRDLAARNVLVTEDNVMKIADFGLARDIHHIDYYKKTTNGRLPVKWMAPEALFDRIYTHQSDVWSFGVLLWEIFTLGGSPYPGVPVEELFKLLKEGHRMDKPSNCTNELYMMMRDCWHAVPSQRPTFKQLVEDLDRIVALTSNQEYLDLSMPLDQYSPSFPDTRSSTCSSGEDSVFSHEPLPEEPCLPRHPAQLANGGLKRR
T4 sequence (P35968 20-1356): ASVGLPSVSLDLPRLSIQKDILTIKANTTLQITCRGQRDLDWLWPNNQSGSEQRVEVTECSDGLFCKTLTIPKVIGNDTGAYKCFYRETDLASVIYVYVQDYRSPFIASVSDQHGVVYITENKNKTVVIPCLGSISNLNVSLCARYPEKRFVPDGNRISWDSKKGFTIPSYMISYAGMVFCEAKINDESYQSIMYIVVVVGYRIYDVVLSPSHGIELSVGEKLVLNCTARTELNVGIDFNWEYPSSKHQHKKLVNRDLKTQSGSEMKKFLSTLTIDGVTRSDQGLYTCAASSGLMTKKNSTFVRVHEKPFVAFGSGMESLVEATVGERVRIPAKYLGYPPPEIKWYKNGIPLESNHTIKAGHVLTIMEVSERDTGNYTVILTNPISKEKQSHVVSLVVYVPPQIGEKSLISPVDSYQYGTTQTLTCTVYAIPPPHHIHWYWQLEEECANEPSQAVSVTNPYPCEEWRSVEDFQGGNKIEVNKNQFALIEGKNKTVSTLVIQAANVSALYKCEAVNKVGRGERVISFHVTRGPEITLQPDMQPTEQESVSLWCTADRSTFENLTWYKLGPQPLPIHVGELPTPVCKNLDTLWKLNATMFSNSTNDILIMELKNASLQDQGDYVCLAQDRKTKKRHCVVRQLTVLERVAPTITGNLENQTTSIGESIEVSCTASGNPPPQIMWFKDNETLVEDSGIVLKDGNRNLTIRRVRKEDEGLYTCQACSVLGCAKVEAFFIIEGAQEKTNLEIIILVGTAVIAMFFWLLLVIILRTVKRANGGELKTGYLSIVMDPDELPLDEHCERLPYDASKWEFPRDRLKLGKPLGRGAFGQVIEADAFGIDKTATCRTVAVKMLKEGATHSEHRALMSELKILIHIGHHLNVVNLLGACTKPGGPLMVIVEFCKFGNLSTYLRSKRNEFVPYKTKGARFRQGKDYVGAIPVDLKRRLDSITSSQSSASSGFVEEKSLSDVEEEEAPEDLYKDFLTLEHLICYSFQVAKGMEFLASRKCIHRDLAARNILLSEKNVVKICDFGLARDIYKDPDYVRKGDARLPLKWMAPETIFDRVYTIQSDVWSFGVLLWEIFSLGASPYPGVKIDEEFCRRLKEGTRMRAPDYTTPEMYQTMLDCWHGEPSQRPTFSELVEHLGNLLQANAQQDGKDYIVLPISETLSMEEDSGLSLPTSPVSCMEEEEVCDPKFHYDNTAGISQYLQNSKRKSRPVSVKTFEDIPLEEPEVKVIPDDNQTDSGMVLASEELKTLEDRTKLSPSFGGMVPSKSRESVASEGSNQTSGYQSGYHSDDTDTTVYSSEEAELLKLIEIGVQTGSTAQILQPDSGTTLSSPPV
T5 sequence (P22455 22-802): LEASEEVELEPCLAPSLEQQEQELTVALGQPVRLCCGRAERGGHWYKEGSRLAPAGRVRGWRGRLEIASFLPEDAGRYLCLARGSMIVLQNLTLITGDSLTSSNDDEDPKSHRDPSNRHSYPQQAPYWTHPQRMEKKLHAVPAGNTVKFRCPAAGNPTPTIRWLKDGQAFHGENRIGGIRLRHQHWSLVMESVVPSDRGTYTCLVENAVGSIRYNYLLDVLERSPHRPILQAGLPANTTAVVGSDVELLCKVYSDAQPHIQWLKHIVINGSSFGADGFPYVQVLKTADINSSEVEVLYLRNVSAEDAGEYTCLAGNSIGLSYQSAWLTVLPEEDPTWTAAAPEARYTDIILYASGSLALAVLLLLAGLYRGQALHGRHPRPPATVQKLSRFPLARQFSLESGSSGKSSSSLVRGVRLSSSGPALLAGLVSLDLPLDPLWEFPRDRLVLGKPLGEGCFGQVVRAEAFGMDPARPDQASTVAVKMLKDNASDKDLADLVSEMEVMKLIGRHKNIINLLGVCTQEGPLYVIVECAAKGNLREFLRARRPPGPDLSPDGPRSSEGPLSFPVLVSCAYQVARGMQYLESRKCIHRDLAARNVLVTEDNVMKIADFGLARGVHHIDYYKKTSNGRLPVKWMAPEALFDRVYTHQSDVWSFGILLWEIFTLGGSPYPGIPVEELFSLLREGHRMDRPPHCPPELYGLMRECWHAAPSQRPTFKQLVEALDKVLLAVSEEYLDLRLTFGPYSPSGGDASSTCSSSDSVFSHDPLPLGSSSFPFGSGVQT
T2 sequence (P21802 22-821): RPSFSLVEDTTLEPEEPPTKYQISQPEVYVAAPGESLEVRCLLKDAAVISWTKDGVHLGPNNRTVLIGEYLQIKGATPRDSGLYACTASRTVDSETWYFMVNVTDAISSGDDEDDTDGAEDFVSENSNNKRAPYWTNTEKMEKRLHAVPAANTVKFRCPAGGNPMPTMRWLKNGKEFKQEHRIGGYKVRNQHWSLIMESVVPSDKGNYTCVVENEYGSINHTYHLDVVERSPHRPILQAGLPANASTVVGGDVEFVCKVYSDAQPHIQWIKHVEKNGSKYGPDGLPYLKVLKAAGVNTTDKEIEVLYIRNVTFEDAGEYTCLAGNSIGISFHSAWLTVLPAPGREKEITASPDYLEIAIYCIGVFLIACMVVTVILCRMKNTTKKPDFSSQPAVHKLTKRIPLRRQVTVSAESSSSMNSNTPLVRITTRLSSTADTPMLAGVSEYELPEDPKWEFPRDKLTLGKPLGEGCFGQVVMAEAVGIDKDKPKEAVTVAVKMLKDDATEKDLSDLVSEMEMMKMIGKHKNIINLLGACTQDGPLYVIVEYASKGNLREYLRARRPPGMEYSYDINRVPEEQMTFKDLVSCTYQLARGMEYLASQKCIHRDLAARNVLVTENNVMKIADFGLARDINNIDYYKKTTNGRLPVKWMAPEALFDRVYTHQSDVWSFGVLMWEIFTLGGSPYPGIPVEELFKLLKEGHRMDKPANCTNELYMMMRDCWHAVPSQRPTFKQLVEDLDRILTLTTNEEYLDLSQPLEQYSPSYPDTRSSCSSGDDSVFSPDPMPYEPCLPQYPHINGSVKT

SMILES	melting point	Kd [1]	Kd [2]	Kd [3]	Kd [4]	Kd [5]	FGFR4_pKd [5]
COc1cc(OC)c(F)c(N(CCCNC(C)C)c2ccc3ncn(C4CCNCC4)c(=O)c3c2)c1	140 °C	–	–	–	–	–	–
COc1cc(OC)c(F)c(N(CCO)c2ccc3ncn(-c4cccnc4)c(=O)c3c2)c1F [Compound 29]	112 °C	6.31e-09 M	3.16e-09 M	1.58e-08 M	6.31e-07 M	5.01e-08 M	–
COc1cc(OC)cc(N(Cc2ncc[nH]2)c2ccc3ncn(C4CCNCC4)c(=O)c3c2)c1 [Compound 44]	220 °C	3.98e-07 M	1.58e-07 M	3.98e-07 M	> 3.16e-06 M	> 3.16e-06 M	–
COc1cc(OC)c(F)c(N(Cc2nccn2S(=O)(=O)N(C)C)c2ccc3ncn(-c4cccnc4)c(=O)c3c2)c1F [Compound 35]	128 °C	3.98e-08 M	1.58e-08 M	5.01e-08 M	1.26e-06 M	1.26e-07 M	–
COc1cc(OC)c(F)c(N(Cc2nccn2S(=O)(=O)N(C)C)c2ccc3ncn(-c4ccncc4)c(=O)c3c2)c1 [Compound 41]	–	1.26e-07 M	3.16e-08 M	1e-07 M	> 3.16e-06 M	7.94e-07 M	–
COc1cc(OC)c(F)c(N(CCCNC(C)C)c2ccc3ncn(C4CCNCC4)c(=O)c3c2)c1 [Compound 61′]	–	6.31e-08 M	2e-08 M	5.01e-08 M	> 3.16e-06 M	2e-07 M	–
COc1cc(OC)c(F)c(N(CCO)c2ccc3ncn(C4CCNCC4)c(=O)c3c2)c1 [Compound 48]	173 °C	7.94e-07 M	6.31e-07 M	1.26e-06 M	> 3.16e-06 M	> 3.16e-06 M	–
COc1cc(OC)c(F)c(N(CCCNC(C)C)c2ccc3ncn(C4CCNCC4)c(=O)c3c2)c1F [Compound 60]	126 °C	1.26e-08 M	5.01e-09 M	6.31e-09 M	–	3.98e-08 M	–
COc1cc(OC)cc(N(CCO)c2ccc3ncn(C4CCNCC4)c(=O)c3c2)c1 [Compound 47]	165 °C	> 3.16e-06 M	> 3.16e-06 M	> 3.16e-06 M	> 3.16e-06 M	> 3.16e-06 M	–
COc1cc(OC)cc(N(CCNC(C)C)c2ccc3ncn(-c4cccnc4)c(=O)c3c2)c1 [Compound 34]	136 °C	1.26e-07 M	5.01e-08 M	6.31e-08 M	> 3.16e-06 M	6.31e-07 M	–
COc1cc(OC)cc(N(CCO)c2ccc3ncn(C4CCOCC4)c(=O)c3c2)c1 [Compound 64]	204 °C	–	3.98e-07 M	6.31e-07 M	> 3.16e-06 M	> 3.16e-06 M	–
COc1cc(OC)c(F)c(N(CCO)c2ccc3ncn(C4CCOCC4)c(=O)c3c2)c1 [Compound 63]	191 °C	1.26e-07 M	6.31e-08 M	3.98e-07 M	> 3.16e-06 M	1.58e-06 M	–
COc1cc(OC)cc(N(CCO)c2ccc3ncn(-c4cccnc4)c(=O)c3c2)c1 [Compound 31]	168 °C	–	5.01e-07 M	–	> 3.16e-06 M	> 3.16e-06 M	–
COc1cc(OC)cc(N(CCCNC(C)C)c2ccc3ncn(C4CCOCC4)c(=O)c3c2)c1 [Compound 73]	240 °C	1.58e-07 M	5.01e-08 M	6.31e-08 M	> 3.16e-06 M	–	5.9
COc1cc(OC)c(F)c(N(CCO)c2ccc3ncn(-c4ccncc4)c(=O)c3c2)c1 [Compound 38]	209 °C	3.16e-08 M	2e-08 M	1e-07 M	> 3.16e-06 M	1.58e-07 M	–
COc1cc(OC)c(F)c(N(Cc2nccn2S(=O)(=O)N(C)C)c2ccc3ncn(-c4cccnc4)c(=O)c3c2)c1 [Compound 36]	108 °C	2.51e-07 M	1e-07 M	1.58e-07 M	> 3.16e-06 M	1.26e-06 M	–
COc1cc(OC)c(F)c(N(CCO)c2ccc3ncn(-c4cncnc4)c(=O)c3c2)c1F [Compound 76]	178 °C	3.16e-08 M	1.58e-08 M	6.31e-08 M	> 3.16e-06 M	2e-07 M	–
COc1cc(OC)c(F)c(N(CCCO)c2ccc3ncn(C4CCOCC4)c(=O)c3c2)c1 [Compound 65]	164 °C	7.94e-08 M	5.01e-08 M	2e-07 M	> 3.16e-06 M	–	–
COc1cc(OC)cc(N(Cc2ncc[nH]2)c2ccc3ncn(C4CCOCC4)c(=O)c3c2)c1 [Compound 69]	260 °C	1.58e-07 M	5.01e-08 M	1.58e-07 M	> 3.16e-06 M	–	–
CNCCN(c1cc(OC)cc(OC)c1)c1ccc2ncn(C3CCNCC3)c(=O)c2c1 [Compound 59]	139 °C	> 3.16e-06 M	> 3.16e-06 M	–	> 3.16e-06 M	> 3.16e-06 M	–
